Data as given in patent US20170216295A1, “CCR9 ANTAGONIST COMPOUNDS” (Merck Sharp & Dohme Corp., priority 2014, published 2017).
Where “and” joins values, the source holds several entries; their conditions need not be identical. Equal entries are not always repeated.

What was measured:
[1] = Human liver microsome clearance; type: in vitro ADME; conditions: second value of RLM/HLM cell
[2] = pH-solubility (high-throughput, buffers); type: physicochemical; conditions: for Sol. pH 4: 1000 ug compound in 1 mL pH 4 buffer; for Sol. pH 7: 1000 ug compound in 1 mL pH 7 buffer; for Sol. pH 9: 1000 ug compound in 1 mL pH 9 buffer
Experimental: Solubility of representative acidic triazoles was measured in 3 buffer systems (pH 4, 7.4 and 9) using an in-house high-throughput solubility method. A stock solution of test article was prepared in DMA (20 mg/ml) and spiked into each buffer system (20× dilution) to target 1 mg/ml concentration. The samples were vortexed briefly and equilibrated for 24 hr at RT. Samples were then filtered using 0.22u PVDF membrane filters and analyzed for drug concentration using HPLC.

[3] = Rat liver microsome clearance; type: in vitro ADME; conditions: first value of RLM/HLM cell
Experimental: Microsomal In-Vitro Clearance:
The test articles (2 μM) were incubated for one hour in 1 mg/mL rat hepatic microsomes with 2 mM NADPH at 37° C. with aliquots removed at t=0, 15, 30 and 60 minutes. Incubations were terminated at the specified times by protein precipitation, and samples were centrifuged. Resultant supernants were analyzed by LC-MS/MS for the amount of incubated compound remaining, and the half life (t1/2) and intrinsic microsomal clearance rate (CLint) of each compound was calculated.

[4] = biological target: T1, CCR9 receptor (Homo sapiens, UniProt P51686); test: Calcium mobilization (Ca FLIPR) assay, antagonist mode vs TECK; type: cell-based; conditions: for LipE: LipE = pIC50-clogD; for IC50: cells expressing CCR9, TECK at EC80 0.01 uM, read-out: CCR9 Ca2+ IC50
T1 sequence (P51686 1-369): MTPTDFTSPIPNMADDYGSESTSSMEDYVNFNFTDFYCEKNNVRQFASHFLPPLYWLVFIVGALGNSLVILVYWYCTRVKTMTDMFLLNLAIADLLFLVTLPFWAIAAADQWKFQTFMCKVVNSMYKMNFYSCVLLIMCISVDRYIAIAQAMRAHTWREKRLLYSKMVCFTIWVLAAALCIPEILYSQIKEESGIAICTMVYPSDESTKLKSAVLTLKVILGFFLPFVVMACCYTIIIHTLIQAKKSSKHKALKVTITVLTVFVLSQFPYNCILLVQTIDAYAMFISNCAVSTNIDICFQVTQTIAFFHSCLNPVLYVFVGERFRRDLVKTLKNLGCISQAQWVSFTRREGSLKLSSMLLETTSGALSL
Experimental: Calcium Mobilization Assay:
Cells expressing CCR9 receptor (MultiSpan, Hayward, Calif.) were seeded in 384-well plates. Ca^2+ assays were conducted after overnight culture in the plates according to the manufacturer's protocol using Screen Quest™ Fluo-8 no wash kit (AAT Bioquest, Sunnyvale, Calif.). Dye loading buffer was added to the cells and incubated for 45 minutes at 37° C. followed by 15 minutes incubation at room temperature. Compounds in the presence of 0.1% DMSO were applied to the cells during calcium flux measurement. Calcium flux was monitored for 90 seconds with compound application after 10 seconds. For antagonist mode, cells were preincubated with the compound at room temperature for 10 minutes before the application of the control agonist TECK (Preprotech, Rocky Hill, N.J.) at EC80 concentration of 0.01 uM obtained from dose-response curves of control agonist.

[5] = system: Molt-4 cells; test: Chemotaxis assay of Molt-4 cells towards TECK; type: cell-based; conditions: Homo sapiens; Molt-4 cells in HBSS buffer with 0.1% BSA; TECK at EC80
Experimental: Molt-4 cells were harvested and re-suspended in HBSS buffer with 0.1% BSA or in 100% human serum. Cell suspensions were mixed with compound solutions for 10 min and then seeded onto the upper chamber of the ChemoTX chemotaxis plates with 5 μm pore size polycarbonate membrane from NeuroProbe (Gaithersburg, Md.). EC80 concentration of TECK was applied in the bottom chamber. After 2 hours of incubation at 37° C., the assay was terminated by removing the upper chamber. The cells migrated into the bottom chamber were quantified with CyQUANT solution from Invitrogen (Grand Island, N.Y.).

Row | Structure (SMILES) | HLM CL (human liver microsome hepatic clearance) [1] | Sol. pH 4 [2] | Sol. pH 7 [2] | Sol. pH 9 [2] | RLM CL (rat liver microsome hepatic clearance) [3] [mL/min/kg] | LipE [4] | IC50 [4] [nM] | IC50 [5] [nM]
1 | Cc1nc2nc(C(F)(F)F)nn2c(O)c1Cc1ccc(C(C)(C)C)cc1 [Compound 2] | 19 mL/min/kg | 4 ug/mL | 565 ug/mL | 1035 ug/mL and > 1000 ug/mL | 54 | 2.6 | 410 | 
2 | Cc1c(Cc2ccc(C(C)(C)C)cc2)c(O)nc2ncnn12 [Compound 3] |  |  |  |  |  |  | 820 | 
3 | Cc1c(Cc2ccc(C(C)(C)C)cc2)c(=O)n2nc(C(F)(F)F)nc2n1C [Compound 4] |  |  |  |  |  |  | > 20000 | 
4 | COc1c(Cc2ccc(C(C)(C)C)cc2)c(C)nc2nc(C(F)(F)F)nn12 [Compound 5] |  |  |  |  |  |  | 3700 | 
5 | Cc1nc2cc(C(F)(F)F)nn2c(O)c1Cc1ccc(C(C)(C)C)cc1 [Compound 7] | 18 mL/min/kg | 0 ug/mL | 0 ug/mL | 5 ug/mL | 42 |  | 110 | 980
6 | CCc1nc2n[nH]c(=O)n2c(O)c1Cc1ccc(C(C)(C)C)cc1 [Compound 8] | 4 mL/min/kg | 79 ug/mL | 117 ug/mL | 914 ug/mL | 39 | 5.5 | 28 | 230
7 | Cc1cn2c(O)c(Cc3ccc(C(C)(C)C)cc3)c(C)nc2n1 [Compound 9] |  |  |  |  |  |  | > 10000 | 
8 | CCc1nc2c[nH]nc2c(O)c1Cc1ccc(C(C)(C)C)cc1 [Compound 10] |  |  |  |  |  |  | > 10000 | 
9 | Cc1nc2nc(C)c(Cc3ccc(C(C)(C)C)cc3)c(O)n2n1 [Compound 12] | 11 mL/min/kg |  |  |  | 50 | 3.9 | 220 | 
10 | CCc1nc2nc(N(C)C)nn2c(O)c1Cc1ccc(C(C)(C)C)cc1 [Compound 15] | 12 mL/min/kg |  |  |  | 43 | 4.1 | 33 | 380
11 | CCc1nc2nc(CN(C)C)nn2c(O)c1Cc1ccc(C(C)(C)C)cc1 [Compound 16] |  |  |  |  |  |  | 290 | 
12 | CC(C)c1nc2ncnn2c(O)c1Cc1ccc(C(C)(C)C)cc1 [Compound 23] | 13 mL/min/kg | 2 ug/mL | 7 ug/mL | 358 ug/mL | 44 | 4.0 | 52 | 340
13 | CC(C)Cc1nc2ncnn2c(O)c1Cc1ccc(C(C)(C)C)cc1 [Compound 24] | 12 mL/min/kg |  |  |  | 43 | 3.9 | 27 | 270
14 | CCOc1nc2ncnn2c(O)c1Cc1ccc(C(C)(C)C)cc1 [Compound 25] | 11 mL/min/kg |  |  |  | 52 | 4.8 | 23 | 92
15 | CC(C)(C)c1ccc(Cc2c(O)nc3ncnn3c2O)cc1 [Compound 31] |  |  |  |  |  |  | > 10000 | 
16 | CN(C)c1nc2ncnn2c(O)c1Cc1ccc(C(C)(C)C)cc1 [Compound 32] |  |  |  |  |  |  | > 1000 | 
17 | Cc1nc2nc(C(F)(F)F)nn2c(O)c1Cc1ccc(N2CC(C)OC(C)C2)c(F)c1 (stereo not drawn) [Compound 33] | —/17 mL/min/kg | 79 ug/mL | > 1000 ug/mL | > 1000 ug/mL |  | 3 | 1900 | 
18 | Cc1nc2nc(C(F)(F)F)nn2c(O)c1Cc1ccc(C2(F)CCOCC2)cc1 [Compound 34] | 17 mL/min/kg |  |  |  | 43 | 3.7 | 340 | 

The next compounds have a lower IC50 [4] than those just listed; values first:

Row | HLM CL (human liver microsome hepatic clearance) [1] | Sol. pH 4 [2] | Sol. pH 7 [2] | Sol. pH 9 [2] | RLM CL (rat liver microsome hepatic clearance) [3] [mL/min/kg] | LipE [4] | IC50 [4] [nM] | IC50 [5] [nM] | Structure (SMILES)
19 | 17 mL/min/kg | >1000/>1000/>1000 ug/mL | >1000/>1000/>1000 ug/mL | >1000/>1000/>1000 ug/mL | 37 | 5.7 | 22 | 380 | CCc1nc2ncnn2c(O)c1Cc1ccc(C2(C)CCOCC2)cc1 [Compound 35]
20 | 12 mL/min/kg |  |  |  | 51 | 4.8 | 21 | 88 | CCc1nc2ncnn2c(O)c1Cc1ccc(C(C)(C)C)cc1 [Compound 21]
21 |  |  |  |  |  | 4.4 | 19 | 130 | CCc1nc2nc(C)nn2c(O)c1Cc1ccc(C(C)(C)C)cc1 [Compound 13]
22 | 8 mL/min/kg |  |  |  | 45 |  | 17 | 205 | CC(C)(C)c1ccc(Cc2c(C3CCOC3)nc3ncnn3c2O)cc1 (stereo not drawn) [Compound 29]
23 | 11 mL/min/kg |  |  |  | 47 |  | 15 | 145 | CC(C)(C)c1ccc(Cc2c(C3CCCC3)nc3ncnn3c2O)cc1 [Compound 28]
24 | 18 mL/min/kg | 0 ug/mL | 0 ug/mL | 5 ug/mL | 42 |  | 12 | 520 | CCc1nc2nc(C(=O)N(C)C)nn2c(O)c1Cc1ccc(C(C)(C)C)cc1 [Compound 18]
25 | 8 mL/min/kg |  |  |  | 43 | 5.5 | 10 | 200 | CCc1nc2nc(CO)nn2c(O)c1Cc1ccc(C(C)(C)C)cc1 [Compound 20]
26 | 11 mL/min/kg | 79 ug/mL | 117 ug/mL | 914 ug/mL | 16 | 4.2 | 8 | 150 | CCOc1nc2nc(CC)c(Cc3ccc(C(C)(C)C)cc3)c(O)n2n1 [Compound 19]
27 | 13 mL/min/kg |  |  |  | 36 |  | 7 | 190 | CCc1nc2nc(COC)nn2c(O)c1Cc1ccc(C(C)(C)C)cc1 [Compound 17]
28 |  |  |  |  |  | 5.3 | 5 | 104 | CC(C)(C)c1ccc(Cc2c(-c3ccoc3)nc3ncnn3c2O)cc1 [Compound 30]
29 |  |  |  |  |  | 5.0 | 4 | 55 | CCCc1nc2ncnn2c(O)c1Cc1ccc(C(C)(C)C)cc1 [Compound 22]
30 | 6 mL/min/kg | 2 ug/mL | 7 ug/mL | 358 ug/mL | 39 | 5.9 | 2 | 50 | CCc1nc2nc(N)nn2c(O)c1Cc1ccc(C(C)(C)C)cc1 [Compound 14]
